“Also recorded” adds a separate entry of the source.
Assays:
[1] = system: U937-SLC2A5 cells (overexpressing the fructose transporter SLC2A5); test: malignant proliferation of AML cells U937-SLC2A5; format: cell-based; settings: 6 mM fructose or 6 mM fructose+0.75 mM glucose
[2] = system: U937-SLC2A5 cells (overexpressing the fructose transporter SLC2A5); test: colony formation of U937-SLC2A5 cells; format: cell-based; settings: 6 mM fructose or 6 mM fructose+0.75 mM glucose
[3] = system: U937-SLC2A5 cells (overexpressing the fructose transporter SLC2A5); test: cell migration of U937-SLC2A5 cells; format: cell-based; settings: 6 mM fructose or 6 mM fructose+0.75 mM glucose
[4] = system: U937; test: proliferation of AML cells U937; format: cell-based
Method: (§1) In cell culture conditions with 6 mM fructose or 6 mM fructose+0.75 mM glucose, 2,5-AM could inhibit the proliferation of four AML cells, including U937, OCI-AML3, HL-60 and K562 cells.

[5] = system: OCI-AML3; test: proliferation of AML cells OCI-AML3; format: cell-based
Method: as §1

[6] = system: HL-60; test: proliferation of AML cells HL-60; format: cell-based
Method: as §1

[7] = system: K562; test: proliferation of AML cells K562; format: cell-based
[8] = system: AML mice (murine leukemic cells with AML1-ETO and mutated C-KIT); test: AML model mice; format: in vivo, BALB/c female mice
Method: AML mice were generated using a previously reported procedure (Wang et al., 2011) with minor modifications. About 1×10^5 GFP-positive murine leukemic cells (splenic cells) with AML1-ETO and mutated C-KIT were injected into the tail vein of each sublethally irradiated (3.5 Gy), 8 week old BALB/c female mice. On day 5 after inoculation of AML cells, 2,5-AM was injected intraperitoneally at a dose of 150 mg/kg/day for continuous administration to mice. Control group AML mice were given saline injection according to the same dose and method.
chemotherapeutic drug cytarabine on the treatment of AML model mice (Ara-C) was administered intraperitoneally at a dose of 25 mg/kg/day on the third day in the AML model mice (see example 3) for 3 days after AML cell inoculation. At the same time, mice were intraperitoneally injected with 2,5 AM at a dose of 150 mg/kg/day on day 5 after AML cell inoculation, until mice were dead. (2) Ara-C alone group: In the AML model mice of Example 3, Ara-C was injected intraperitoneally at a dose of 25 mg/kg/day on the third day after AML cell inoculation for 3 days.

[9] = system: PANC-1; test: fructose-induced proliferation of pancreatic cancer cells PANC-1; format: cell-based; settings: 6 mM fructose culture
[10] = system: CFPAC-1; test: fructose-induced proliferation of pancreatic cancer cells CFPAC-1; format: cell-based; settings: 6 mM fructose culture
[11] = system: BxPC-3; test: fructose-induced proliferation of pancreatic cancer cells BxPC-3; format: cell-based; settings: 6 mM fructose culture
[12] = system: HCT-15; test: malignant proliferation of colorectal cancer cells HCT-15; format: cell-based; settings: 6 mM fructose culture
[13] = system: HCT-116; test: malignant proliferation of colorectal cancer cells HCT-116; format: cell-based; settings: 6 mM fructose culture
[14] = system: AML cells; test: fructose utilization in AML cells in vitro; format: cell-based; settings: in vitro cell experiments
Text: Enhanced fructose metabolism mediated by GLUTS exacerbates the malignant phenotype of AML cells, including increased cell proliferation, enhanced colony formation, and increased mobility and infiltration of AML cells (FIG. 3A-3D). […] Additionally 2,5-AM can kill AML cells in concert with conventional chemotherapeutic agents (FIG. 7A-7G).

[15] = system: cancer cells; test: fructose and glucose utilization by cancer cells; format: cell-based
Text: The present inventors have discovered, for the first time, the important role of GLUTS-mediated fructose metabolism in the malignant progression of cancer, and the close relationship with the prognosis of the cancer patients, through extensive and in-depth research and clinical data analysis. […] Furthermore, 2,5-AM may reverse the malignant phenotypes of AML cells by synergizing with conventional chemotherapeutic cytarabine or glucose analogue 2-deoxy-glucose (2-DG). […] Moreover, 2,5-AM and cytarabine in AML mice also have a significant synergistic effect. Through the above work, the present inventors have determined the administration of 2,5-AM to AML, pancreatic cancer, and colorectal cancer, including the dosage, the route of administration and the duration of administration; and the combined use of 2,5-AM and conventional chemotherapeutic agents or 2-DG methods for cancer treatment.

[16] = 6 mM fructose or 6 mM fructose+0.75 mM glucose
[17] = 150 mg/kg/day intraperitoneally from day 5, compared with saline control group

SMILES: OC[C@H]1O[C@H](CO)[C@@H](O)[C@@H]1O [2,5-AM, 2,5-anhydro-D-mannitol]
- malignant proliferation of AML cells U937-SLC2A5 [1]: significantly inhibited
- colony formation [2]: significantly inhibited
- cell migration [3]: significantly inhibited
- malignant proliferation of U937 [4, 16]: significantly inhibited; also recorded: could inhibit
- cell proliferation of U937 ([4]; 6 mM glucose): almost unaffected
- malignant proliferation of OCI-AML3 [5, 16]: significantly inhibited; also recorded: could inhibit
- cell proliferation of OCI-AML3 ([5]; 6 mM glucose): almost unaffected
- malignant proliferation of HL-60 [6, 16]: significantly inhibited; also recorded: could inhibit
- cell proliferation of HL-60 ([6]; 6 mM glucose): almost unaffected
- malignant proliferation of K562 [7, 16]: significantly inhibited; also recorded: could inhibit
- cell proliferation of K562 ([7]; 6 mM glucose): almost unaffected
- bone marrow leukemia cells [8, 17]: significantly inhibited
- hemoglobin [8, 17]: significantly increased
- overall survival of mice [8, 17]: significantly prolonged
- peripheral blood leukemia cells [8, 17]: significantly inhibited
- peripheral blood red blood cell count [8, 17]: significantly increased
- peripheral white blood cells [8, 17]: significantly inhibited
- platelet count [8, 17]: significantly increased
- spleen enlargement [8, 17]: significantly relieved
- fructose utilization by AML cells in vivo ([8]; mouse in vivo experiments): significantly inhibited
- proliferation of PANC-1 [9]: significantly inhibited
- proliferation of CFPAC-1 [10]: significantly inhibited
- proliferation of BxPC-3 [11]: significantly inhibited
- malignant proliferation of HCT-15 [12]: significantly inhibited
- malignant proliferation of HCT-116 [13]: significantly inhibited
- fructose utilization in AML cells [14]: blocked
- fructose utilization by cancer cells [15]: competitively inhibits
- glucose utilization [15]: little effect

Reference: patent US10441564B2, “Fructose analogs and their combinations as anti-cancer agents” (priority 2016, dated 2019)
